Measured values taken from patent publication US20240262833A1, “FUSED HETEROCYCLIC DERIVATIVES AS NEGATIVE ALLOSTERIC MODULATORS OF MGLU7 RECEPTOR” (Addex Pharma S.A., priority 2021, published 2024).

Molecular target: T1, human metabotropic glutamate 7 receptor (hmGlu7) (Homo sapiens, UniProt Q14831)
T1 construct: expressed in transfected cells
Assay: mGlu7 assay on HEK-expressing human mGlu7: fluorescent cell based Ca2+ mobilization assay (FLIPR), inhibition of EC80 L-AP4 response
Details: HEK-293 cells expressing hmGlu7; EC80 L-AP4 stimulation; mean of at least three independent experiments in duplicate; read-out: Ca2+ Flux (mean IC50)
Text: mGlu7 Assay on HEK-Expressing Human mGlu7
The cDNA encoding the human metabotropic glutamate 7 receptor (hmGlu7), (accession number NM_181874.2, NCBI Nucleotide database browser), was subcloned into an expression vector containing also the hygromycin resistance gene. In parallel, the cDNA encoding a G protein allowing redirection of the activation signal to intracellular calcium flux was subcloned into a different expression vector containing also the Puromycin resistance gene. Transfection of both these vectors into HEK293 cells with PolyFect reagent (Qiagen) according to supplier's protocol, and hygromycin and puromycin treatment allowed selection of antibiotic resistant cells which had integrated stably one or more copies of the plasmids. Positive cellular clones expressing hmGlu7 were identified in a functional assay measuring changes in calcium fluxes in response to glutamate and L-AP4 or known mGlu7 orthosteric antagonists.
HEK-293 cells expressing hmGlu7 were maintained in media containing DMEM, Fetal Bovine Serum (10%), Glutamax™ (2 mM), penicillin (100 units/mL), streptomycin (100 μg/mL), geneticin (100 μg/mL) and hygromycin-B (40 μg/mL) and puromycin (1 μg/mL) at 37° C. with 5% CO2 in a humidified atmosphere.
Fluorescent Cell Based-Ca^2+ Mobilization Assay Human mGlu7 HEK-293 cells were plated out 24 hours prior to a fluorescent cell-based calcium mobilization assay using FLIPR^384 assay (Molecular Device, Sunnyvale, CA, USA) in black-walled, clear-bottomed, poly-L-ornithine-coated 384-well plates at a density of 25,000 cells/well in a glutamine/glutamate free DMEM medium containing fetal bovine serum (10%), penicillin (100 units/mL), streptomycin (100 μg/mL) and doxycyline (1 μg/ml) at 37° C. with 5% CO2 in a humidified atmosphere.
On the day of the assay, the medium was aspirated and the cells were loaded with a 3 μM solution of Fluo4-AM (LuBioScience, Lucerne, Switzerland) in 0.03% pluronic acid. After 1 hour at 37° C./5% CO2, the non incorporated dye was removed by washing cell plate with the assay buffer. All assays were performed in a pH 7.4 buffered-solution containing 20 mM HEPES, 143 mM NaCl, 6 mM KCl, 1 mM MgSO4, 1 mM CaCl2, 0.125 mM sulfinpyrazone and 0.1% glucose.
After 10 s of basal fluorescence recording, various concentrations of the compounds of the invention were added to the cells. Changes in fluorescence levels were first monitored for 180 s in order to detect any agonist activity of the compounds. Then the cells were stimulated by an EC80 L-AP4 concentration for an additional 110 s in order to measure inhibiting activities of the compounds of the invention. EC80 L-AP4 concentration is the concentration giving 80% of the maximal glutamate response.
The concentration-response curves of L-AP4 or representative compounds of the present invention were generated using the Prism GraphPad software (Graph Pad Inc, San Diego, USA). The curves were fitted to a four-parameter logistic equation: […]
allowing determination of IC50 values.
The Table 3 below represents the mean IC50 obtained from at least three independent experiments of selected molecules performed in duplicate.

T1 sequence (Q14831 35-922 isoform Q14831-2): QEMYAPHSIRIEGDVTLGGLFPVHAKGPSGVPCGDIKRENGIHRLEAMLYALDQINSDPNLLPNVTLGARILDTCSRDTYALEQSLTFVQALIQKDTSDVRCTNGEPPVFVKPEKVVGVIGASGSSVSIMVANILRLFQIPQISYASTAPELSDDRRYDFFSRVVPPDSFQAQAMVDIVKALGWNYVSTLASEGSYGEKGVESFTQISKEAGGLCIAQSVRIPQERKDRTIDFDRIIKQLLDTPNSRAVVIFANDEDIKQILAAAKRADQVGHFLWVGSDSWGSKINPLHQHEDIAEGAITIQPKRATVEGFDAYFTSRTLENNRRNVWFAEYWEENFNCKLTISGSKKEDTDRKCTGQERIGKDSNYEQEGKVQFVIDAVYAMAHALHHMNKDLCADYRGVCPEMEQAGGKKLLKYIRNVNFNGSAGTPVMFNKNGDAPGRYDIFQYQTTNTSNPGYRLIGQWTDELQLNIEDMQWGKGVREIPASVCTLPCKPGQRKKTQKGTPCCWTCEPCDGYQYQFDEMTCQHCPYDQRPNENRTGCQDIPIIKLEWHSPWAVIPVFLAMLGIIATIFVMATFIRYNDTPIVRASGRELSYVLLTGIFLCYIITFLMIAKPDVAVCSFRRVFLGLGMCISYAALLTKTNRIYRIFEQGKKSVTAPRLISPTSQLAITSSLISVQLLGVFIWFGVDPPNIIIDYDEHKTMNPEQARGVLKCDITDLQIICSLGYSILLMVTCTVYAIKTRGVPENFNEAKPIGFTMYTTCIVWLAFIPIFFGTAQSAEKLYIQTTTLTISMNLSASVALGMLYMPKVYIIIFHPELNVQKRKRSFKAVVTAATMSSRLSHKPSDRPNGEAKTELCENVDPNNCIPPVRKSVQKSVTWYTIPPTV

Compound	IC50 [nM]
COc1cccc(-n2c(C)c3cnn(-c4ncc(C5CC5)cn4)c(=O)c3c2C)c1C [1-207]	100 to 1000
COc1cccc(-n2c(C)c3cnn(-c4cccc(CC#N)c4)c(=O)c3c2C)c1 [1-146]	< 100
Cc1c2cnn(-c3ccccc3)c(=O)c2c(C)n1-c1ccccc1Cl [1-19]	100 to 1000
Cc1c2cnn(-c3ccccn3)c(=O)c2c(C)n1-c1cccc(OC(F)F)c1 [1-202]	< 100
COc1ccc(-n2c(C)c3cnn(-c4ccccc4)c(=O)c3c2C)cc1 [1-24]	100 to 1000
Cc1c2cnn(-c3ccccn3)c(=O)c2c(C)n1-c1cc(N2CCC2)ccc1F [1-196]	< 100
Cc1c2cnn(-c3ccc(C#N)cc3)c(=O)c2c(C)n1-c1ccccc1 [1-17]	100 to 1000
COc1ccc(-n2ncc3c(C)n(-c4cccc(N5CCC5)c4)c(C)c3c2=O)cc1CO [1-163]	< 100
CC(=O)c1ccc(-n2c(C)c3cnn(-c4ccccn4)c(=O)c3c2C)cc1 [1-132]	1000 to 10000
Cc1c2cnn(-c3ccccn3)c(=O)c2c(C)n1-c1cccc(N2CCC(C)(C)C2)c1 [1-179]	100 to 1000
Cc1c2cnn(-c3ncccc3F)c(=O)c2c(C)n1-c1cccc2c1ccn2C1CC1 [1-213]	< 100
Cc1ccc(-n2c(C)c3cnn(-c4cccnc4)c(=O)c3c2C)cc1 [1-39]	100 to 1000
COc1cccc(-n2c(C)c3cnn(-c4ccccc4Cl)c(=O)c3c2C)c1 [1-150]	100 to 1000
Cc1c2cnn(-c3ncccn3)c(=O)c2c(C)n1-c1ccccc1 [1-58]	1000 to 10000
Cc1c(OC2CC2)cccc1-n1c(C)c2cnn(-c3ncccn3)c(=O)c2c1C [1-200]	< 100
Cc1c2cnn(-c3ccc(C(N)=O)cc3)c(=O)c2c(C)n1-c1ccccc1 [1-57]	100 to 1000
COc1ccc(-n2ncc3c(C)n(-c4ccccc4)c(C)c3c2=O)cn1 [1-52]	100 to 1000
COc1ccc(F)c(-n2c(C)c3cnn(-c4ccccn4)c(=O)c3c2C)c1 [1-194]	100 to 1000

Compound	IC50 [nM]
Cc1c2cnn(-c3cccc(S(C)(=O)=O)c3)c(=O)c2c(C)n1-c1cccc(N2CCC2)c1 [1-151]	< 100
Cc1c2cnn(-c3ccccn3)c(=O)c2c(C)n1-c1ccc2cc[nH]c2c1 [1-80]	1000 to 10000
Cc1c2cnn(-c3cccnc3)c(=O)c2c(C)n1-c1cccc(N2CCC2)c1 [1-164]	< 100
Cc1c2cnn(-c3ncccn3)c(=O)c2c(C)n1-c1cccc(OC2CC2)c1F [1-236]	< 100
COc1ccc(-n2c(C)c3cnn(-c4ccc(CNC(C)=O)cc4)c(=O)c3c2C)cc1 [1-106]	100 to 1000
COc1cccc(-n2c(C)c3cnn(-c4ccc(C(F)(F)F)cn4)c(=O)c3c2C)c1 [1-122]	100 to 1000
Cc1c2cnn(-c3ccccn3)c(=O)c2c(C)n1-c1cccc(N(C)C)c1 [1-110]	100 to 1000
Cc1c2cnn(-c3cccnc3)c(=O)c2c(C)n1-c1cccc(N2CCOCC2)c1 [1-64]	1000 to 10000
Cc1cnc(-n2ncc3c(C)n(-c4cccc(N5CCC5)c4)c(C)c3c2=O)nc1 [1-228]	< 100
Cc1c2cnn(-c3ccccc3)c(=O)c2c(C)n1-c1cccc(N2CCOCC2)c1 [1-33]	100 to 1000
Cc1c2cnn(-c3ccc(CCF)cc3)c(=O)c2c(C)n1-c1cccc(N2CCC2)c1 [1-189, 6-(3-(Azetidin-1-yl)phenyl)-2-(4-(2-fluoroethyl)phenyl)-5,7-dimethyl-2,6-dihydro-1H-pyrrolo[3,4-d]pyridazin-1-one]	< 100
Cc1c2cnn(-c3ccccn3)c(=O)c2c(C)n1-c1cccc(C2CC2)c1 [1-137]	100 to 1000
Cc1c2cnn(C3CCCC3)c(=O)c2c(C)n1-c1cccc(N2CCC2)c1 [1-190]	100 to 1000
COCc1ccc(-n2ncc3c(C)n(-c4ccccc4)c(C)c3c2=O)cc1 [1-38]	< 100
COc1ccccc1-n1ncc2c(C)n(-c3ccccc3)c(C)c2c1=O [1-5]	1000 to 10000
Cc1cncc(-n2ncc3c(C)n(-c4cccc(N5CCC5)c4)c(C)c3c2=O)c1 [1-158]	< 100
Cc1c2cnn(-c3ccccc3)c(=O)c2c(C)n1-c1cccc(N(C)C)c1 [1-35]	< 100
